Values belong to the compound of their own block, whether it stands above or below them.
Legend:
[1] = test system: doxorubicin resistance tumors; conditions: animal model; cited from earlier work
[2] = estimated/extrapolated EGCg plasma concentration after oral daily dose; format: in vivo, dogs
Protocol: Previous reports indicate in vivo therapeutic activity at a plasma concentration of 1 to 10 μM/L (Lambert & Yang, 2003). Swezey et. al (Swezey et al., 2003) studied the absorption, tissue distribution and elimination of 4-[^3H]-epigallocatechin gallate in beagle dogs and estimated that approximately 20% of the oral dose appears in plasma after one hour and a half life of approximately 8 h. Considering an underestimation of this value to be 50 μg/ml and the molecular weight of EGCg of […] a daily dose of 250 mg/kg/day would result in a plasma concentration of approximately 100 μM/L. The doses proposed herein would result in an extrapolated value of more than […] in plasma.

[3] = beagle dogs, cited from earlier work
[4] = test system: opportunistic microbial infections; test: opportunistic microbial infections in canines treated with antimetabolites for lymphoma; format: in vivo
Text: There is a wide commercial need for inexpensive small molecular weight immunoenhancing drugs to enhance the immune response of individuals treated with antimetabolite anti-cancer drugs, which are immunosuppressive. We are using as the preclinical prototype pet canines treated for lymphoma, one of the most common cancers of dogs as well as humans.

plasma concentration ([2]; daily dose of 250 mg/kg/day): approximately 100 μM/L
plasma value, considered an underestimation ([2]; daily dose of 250 mg/kg/day): 50 µg/mL
extrapolated value in plasma ([2]; the doses proposed herein (6-60 mg/kg/day EGCg, oral)): more than 11 M/L
Compound: O=C(O[C@@H]1Cc2c(O)cc(O)cc2O[C@@H]1c1cc(O)c(O)c(O)c1)c1cc(O)c(O)c(O)c1 [EGCg, epigallocatechin gallate]
effect on doxorubicin resistance tumors [1]: revert doxorubicin resistance tumors

Compound: [3H]C1c2c(O)cc(O)cc2OC(c2cc(O)c(O)c(O)c2)C1OC(=O)c1cc(O)c(O)c(O)c1 (stereo not shown) [4-[^3H]-epigallocatechin gallate]
oral dose that appears in plasma ([3]; after one hour): approximately 20%
half life ([3]; oral dose): approximately 8 h

Compound: COc1cccc2c1C(=O)c1c(O)c3c(c(O)c1C2=O)C[C@@](O)(C(=O)CO)C[C@@H]3O[C@H]1C[C@H](N)[C@H](O)[C@H](C)O1 [adriamycin]
incidence of opportunistic microbial infections [4]: increased incidence of opportunistic microbial infections

Source: patent US20070082073A1, “Catechin Adjuvants” (UNIVERSITY OF SOUTH FLORIDA, priority 2005, published 2007)
